Values quoted from earlier work in patent US5955321A, “Production and use of compositions comprising high concentrations of vitamin B12 activity” (Gist-Brocades, priority 1996, dated 1999).

Conditions: for stability to light: in isolated form

Row | Molecule | stability in aqueous solution | stability to light
1 | 5'desoxyadenosylcobalamin | easily transformed to hydroxocobalamin | unstable to light
2 | C/C1=C2/[N-][C@H]([C@H](CC(N)=O)[C@@]2(C)CCC(=O)NC[C@@H](C)OP(=O)([O-])O[C@H]2[C@@H](O)[C@@H](n3cnc4cc(C)c(C)cc43)O[C@@H]2CO)[C@]2(C)N=C(/C(C)=C3N=C(/C=C4N=C1[C@@H](CCC(N)=O)C\4(C)C)[C@@H](CCC(N)=O)[C@]\3(C)CC(N)=O)[C@@H](CCC(N)=O)[C@]2(C)CC(N)=O.[CH3-].[Co+3] [methylcobalamin] | easily transformed to hydroxocobalamin | unstable to light
